# Experimental data published in patent publication US20240180932A1, “S[…] COMPOUNDS IN THE MANAGEMENT OF AGEING AND RELATED DISORDERS” (SOCIETE DES PRODUITS NESTLE S.A., priority 2021, published 2024).
# Experiments:
# WT C. elegans = assay: Thermotolerance of C. elegans after a heat-shock of 37 C for 4 hours (survival, microfluidic Infinity System); format: in vivo; settings: 48 hrs treatment
# Protocol: FIG. 1. Compound 1 improves the thermotolerance of C. elegans, after a 37 C heat-shock. Day 1 adults were treated with 4 different concentrations of Compound 1 for 48 hrs at 20 C. Control is the no-drug-treated population. All compound solutions were made in NGM with 0.2% v/v DMSO, and the bacterial food source (20 mg/mL E. coli OP50). After 48 hrs of Compound 1 treatment, animals were exposed to 37 C for 4 hours and allowed to recover for 15 mins following which death scores were determined using the microfluidic Infinity System. One-way ANOVA test was used to compare the response from different doses. Multiple comparison test was conducted for pairwise comparison to identify the dosages which provide thermotolerance benefit.
# It has been reported that exposing C. elegans to high temperatures increases the molecular stress and reduces animal lifespan. […] Importantly, this has been used to screen and evaluate the effectiveness of anti-ageing compounds. We monitored the survival of C. elegans after a thermal stress to determine whether Compound 1 could improve the ageing of these animals and at what concentrations this may occur. […] To achieve this, worms were maintained at their normal temperature (20 C) and then treated for 48-hour incubation with Compound 1 starting on adult day 1, followed by 4-hour heat challenge at 37 C, followed by 15 mins recovery and then death was recorded.
# [1] = test system: AMPKα2 knockout C. elegans (aak-2); assay: Lifespan of AMPKα2 knockout C. elegans (aak-2); format: in vivo; design: Mean lifespan / Maximum lifespan: unit not given here
# Protocol: FIG. 3. […] 60-70 synchronized day 1 adult aak-2 animals were loaded in each Infinity chip and treated with 0.5 μM or 10 μM of Compound 1, throughout life, and with fresh doses of OP50 bacteria (20 mg/ml) at 20 C, each day. Note that the control is the no drug treated population (0.2% v/v DMSO liquid NGM). […] Each day, at the same time, death scores were determined and three independent trials were conducted, with two technical replicates per trial.
# We tested the ability of Compound 1 to extend lifespan in C elegans which have the AMP-activated protein kinase (AMPK) α2 subunit isoform deletion. This mutant strain (aak-2) is commonly used in lifespan studies to look at the dependence on activation of AMPK for mediating the lifespan and other effects of various compounds.
# Zebrafish larvae = assay: Autophagy induction in Zebrafish larvae (LC3-ZsGreen reporter, LC3 punctae); format: in vivo; settings: 0.25, 0.5, 1 and 2.5 μM
# Protocol: FIG. 7. Compound 1 increases autophagy in Zebrafish larvae. An autophagy reporter zebrafish line was generated by stable expression of the LC3 protein fused to ZsGreen under the control of a skeletal muscle specific promoter. Larvae from outcrossed transgenic zebrafish were raised at 28 C under standard laboratory conditions and have been treated at 48 h post-fertilization in 96 well plates with varying concentrations of Compound 1 at different concentrations as indicated in the figure. After 16 hours of treatment larvae were anesthetized with 0.016% tricaine and imaged with ImageXpress confocal system at 20× magnification (Molecular Devices). Z stack images were captured for each larva and maximal projection images were produced. Ammonium chloride (final concentration 100 mM) was added for an additional 4 h to block lysosomal degradation. Images were acquired again as before. In order to quantify autophagic flux, number of LC3 punctae have been calculated in presence and in absence of ammonium chloride with MetaXpress software (Molecular Devices) and normalized by zebrafish area.
# C. elegans = assay: Mobility of C. elegans (highly active, moderately active, inactive cohorts); format: in vivo; settings: for Effect on percentage of highly active animals: Days 5, 8, 12, 15
# Protocol: FIG. 4. […] To measure locomotory health related parameters the same video recordings that were captured for live/dead scoring were analyzed. The movements of the individual animals were tracked and animals were grouped into cohorts of different activity. This was achieved by determining how much of the animal body moved in a boundary box that encompasses it, in a duration of 30 seconds.
# FIG. 5. […] The movements of the individual animals were tracked and animals were grouped into cohorts of different activity. This was achieved by determining how much of the animal body moved in a boundary box that encompasses it, in a duration of 30 seconds.
# FIG. 6. […] The movements of the individual animals were tracked and animals were grouped into cohorts of different activity. This was achieved by determining how much of the animal body moved in a boundary box that encompasses it, in a duration of 30 seconds.
# It is possible to measure the mobility of C. elegans and monitor this throughout the lifespan of the worms. As with many species, C. elegans display an age-related decline in mobility. […] Therefore, we tested whether Compound 1 could improve the mobility of C. elegans throughout their lifespan. To measure locomotory health related parameters the same video recordings that were captured for live/dead scoring were analyzed using the Infinity Code. The movements of the individual animals were tracked and animals were grouped into cohorts of different activity. The cohort analysis involved determining how much of the animal body moved in the boundary box that encompasses it, in a duration of 30 seconds.
# wild-type C. elegans = assay: Lifespan of wild-type C. elegans (microfluidic Infinity System); format: in vivo; design: Mean lifespan / Maximum lifespan: unit not given here
# Protocol: FIG. 2. 10 μM Compound 1 extends the mean and maximum lifespan of C. elegans. 60-70 synchronized day 1 adult animals were loaded in each Infinity chip and treated with 0.5 μM or 10 μM of Compound 1, throughout life, and with fresh doses of OP50 bacteria (20 mg/ml) at 20 C, each day. Note that the control is the no drug treated population (0.2% v/v DMSO liquid NGM). […] Each day, at the same time, death scores were determined and three independent trials were conducted, with two technical replicates per trial.
# To determine whether Compound 1 can extend lifespan, C. elegans were treated with 0.5 μM or 10 μM Compound 1 from day 1 of adulthood. The microfluidic Infinity System was used to assess the lifespan of Compound 1-treated and non-treated control worms. 60-70 synchronized day 1 adult animals were loaded in each Infinity chip and treated with 0.5 μM or 10 μM of Compound 1, lifelong, with daily fresh doses of 20 mg/mL of OP50 bacteria at 20 C. Control is the no-drug-treated population, maintained in 0.2% v/v DMSO liquid NGM. […] Each day, at the same time death scores were determined using the Infinity Code. Three independent trials with two technical replicates per trial were conducted.
# [2] = Solubility in water-based solutions; format: physicochemical
# [3] = aak-2, 0.5 μM, Pooled Trials 1 to 3
# [4] = aak-2, 10 μM, Pooled Trials 1 to 3
smiles,measurement,setting,value
"C=C(C)[C@@H]1CCC(C)=C[C@H]1c1c(O)cc(CCCCC)c(C(=O)O)c1O [Compound 1, Cannabidiolic acid]",Survival after heat shock,WT C. elegans; 0.5 μM,small improvement in survival
same,Survival after heat shock,WT C. elegans; concentrations above 0.5 μM,almost a complete prevention of C. elegans death
same,ability to extend lifespan in aak-2 worms,"[1]; aak-2, 0.5 μM or 10 μM",completely lost
same,% lifespan extension,[1]; [3],−1.2%
same,Maximum lifespan,[1]; [3],26
same,Mean lifespan,[1]; [3],15.9 ± 4.2
same,% lifespan extension,"[1]; aak-2, 0.5 μM, Trial 1",0%
same,Maximum lifespan,"[1]; aak-2, 0.5 μM, Trial 1",25
same,Mean lifespan,"[1]; aak-2, 0.5 μM, Trial 1",16.0 ± 4.2
same,% lifespan extension,"[1]; aak-2, 0.5 μM, Trial 2",−4.7%
same,Maximum lifespan,"[1]; aak-2, 0.5 μM, Trial 2",26
same,Mean lifespan,"[1]; aak-2, 0.5 μM, Trial 2",16.1 ± 4.0
same,% lifespan extension,"[1]; aak-2, 0.5 μM, Trial 3",−3.7%
same,Maximum lifespan,"[1]; aak-2, 0.5 μM, Trial 3",25
same,Mean lifespan,"[1]; aak-2, 0.5 μM, Trial 3",15.6 ± 4.4
same,% lifespan extension,[1]; [4],0%
same,Maximum lifespan,[1]; [4],26
same,Mean lifespan,[1]; [4],16.1 ± 4.2
same,% lifespan extension,"[1]; aak-2, 10 μM, Trial 1",−7.5%
same,Maximum lifespan,"[1]; aak-2, 10 μM, Trial 1",23
same,Mean lifespan,"[1]; aak-2, 10 μM, Trial 1",14.9 ± 3.8
same,% lifespan extension,"[1]; aak-2, 10 μM, Trial 2",−4.1%
same,Maximum lifespan,"[1]; aak-2, 10 μM, Trial 2",26
same,Mean lifespan,"[1]; aak-2, 10 μM, Trial 2",16.2 ± 4.7
same,% lifespan extension,"[1]; aak-2, 10 μM, Trial 3",3.8%
same,Maximum lifespan,"[1]; aak-2, 10 μM, Trial 3",24
same,Mean lifespan,"[1]; aak-2, 10 μM, Trial 3",16.8 ± 3.5
same,Autophagy (LC3),"Zebrafish larvae; 16 hours, without NH4Cl",dose-dependent increase in autophagy
same,Autophagy (LC3),Zebrafish larvae; in the presence of NH4Cl,dose-dependent increase in autophagy
same,Effect on percentage of highly active animals,C. elegans; 0.5 μM,increases the percentage of highly active animals at Day 8 only
same,Effect on moderately active worms,"C. elegans; 0.5 μM, days 14 to 20",increases the number of moderately active worms
same,Effect on proportion of inactive worms,"C. elegans; 0.5 μM, days 14 to 20",decreases the proportion of inactive worms
same,Effect on percentage of highly active animals,C. elegans; 10 μM,"increases the percentage of highly active animals at Days 8, 12 and 15"
same,Effect on proportion of highly active worms,"C. elegans; 10 μM, days 14 and 20",increases the proportion of highly active worms
same,Effect on proportion of inactive worms,"C. elegans; 10 μM, days 14 and 20",decreases the proportion of inactive worms
same,Mean % of Highly Active animals,"C. elegans; Day 5, 0.5 μM",83.7%
same,Mean % of Highly Active animals,"C. elegans; Day 5, 10 μM",89.3%
same,Mean % of Highly Active animals,"C. elegans; Day 8, 0.5 μM",75.7%
same,Mean % of Highly Active animals,"C. elegans; Day 8, 10 μM",78.1%
same,Mean % of Highly Active animals,"C. elegans; Day 12, 0.5 μM",45.2%
same,Mean % of Highly Active animals,"C. elegans; Day 12, 10 μM",49.7%
same,Mean % of Highly Active animals,"C. elegans; Day 15, 0.5 μM",18.3%
same,Mean % of Highly Active animals,"C. elegans; Day 15, 10 μM",23.7%
same,% lifespan extension,"wild-type C. elegans; 0.5 μM, Pooled Trials 1 to 3",1.3%
same,Maximum lifespan,"wild-type C. elegans; 0.5 μM, Pooled Trials 1 to 3",26
same,Mean lifespan,"wild-type C. elegans; 0.5 μM, Pooled Trials 1 to 3",15.3 ± 5.4
same,% lifespan extension,"wild-type C. elegans; 0.5 μM, Trial 1",4.4%
same,Maximum lifespan,"wild-type C. elegans; 0.5 μM, Trial 1",25
same,Mean lifespan,"wild-type C. elegans; 0.5 μM, Trial 1",16.6 ± 5.8
same,% lifespan extension,"wild-type C. elegans; 0.5 μM, Trial 2",0%
same,Maximum lifespan,"wild-type C. elegans; 0.5 μM, Trial 2",26
same,Mean lifespan,"wild-type C. elegans; 0.5 μM, Trial 2",15.2 ± 5.7
same,% lifespan extension,"wild-type C. elegans; 0.5 μM, Trial 3",0%
same,Maximum lifespan,"wild-type C. elegans; 0.5 μM, Trial 3",26
same,Mean lifespan,"wild-type C. elegans; 0.5 μM, Trial 3",15.0 ± 5.4
same,Effect on mean and maximum lifespan,wild-type C. elegans; 10 μM,significantly extended mean and maximum lifespan
same,maximum lifespan extension,wild-type C. elegans; 10 μM,2 days
same,mean lifespan extension,wild-type C. elegans; 10 μM,around 11%
same,% lifespan extension,"wild-type C. elegans; 10 μM, Pooled Trials 1 to 3",11.3%
same,Maximum lifespan,"wild-type C. elegans; 10 μM, Pooled Trials 1 to 3",27
same,Mean lifespan,"wild-type C. elegans; 10 μM, Pooled Trials 1 to 3",16.8 ± 5.6
same,% lifespan extension,"wild-type C. elegans; 10 μM, Trial 1",10%
same,Maximum lifespan,"wild-type C. elegans; 10 μM, Trial 1",27
same,Mean lifespan,"wild-type C. elegans; 10 μM, Trial 1",17.5 ± 5.8
same,% lifespan extension,"wild-type C. elegans; 10 μM, Trial 2",11.8%
same,Maximum lifespan,"wild-type C. elegans; 10 μM, Trial 2",27
same,Mean lifespan,"wild-type C. elegans; 10 μM, Trial 2",17.1 ± 5.9
same,% lifespan extension,"wild-type C. elegans; 10 μM, Trial 3",25%
same,Maximum lifespan,"wild-type C. elegans; 10 μM, Trial 3",26
same,Mean lifespan,"wild-type C. elegans; 10 μM, Trial 3",18.8 ± 6.0
same,Solubility,[2],low solubility in water-based solutions
